Measurements from patent US4476298A, “Erythromycin A derivatives” (Taisho Pharmaceutical Co., Ltd., priority 1981, dated 1984).
≈ marks a conversion by molar mass, not a printed value. Like-named read-outs stand apart in the source and are kept apart here.

What was measured:
Test in all cases: antibacterial activity (MIC), agar plate dilution method
Type in all cases: cell-based
[1] = system: Staphylococcus epidermidis IID 866; conditions: for MIC: Staphylococcus epidermidis
Method: (§1) Erythromycin A was used as a control, and the compounds of formula I derived from Fractions A, B and C were tested for antibacterial activity against various bacteria by the agar plate dilution method.

[2] = system: Micrococcus luteus NIHJ; conditions: for MIC: read-out: MIC value (minimal inhibitory concentration)
Method: as §1

[3] = system: Staphylococcus aureus TPR 25; conditions: for MIC: Staphylococcus aureus
Method: as §1

[4] = system: Bacillus subtilis EM-R; conditions: for MIC: Bacillus subtilis, read-out: MIC value (minimal inhibitory concentration), Bacillus subtilis EM-R, strain resistant to erythromycin
Method: as §1

[5] = system: Staphylococcus aureus smith; conditions: for MIC: Staphylococcus aureus, read-out: MIC value (minimal inhibitory concentration)
Method: as §1

[6] = system: Staphylococcus aureus TPR 23; conditions: for MIC: Staphylococcus aureus; for MIC value (minimal inhibitory concentration): Staphylococcus aureus TPR 23, strain resistant to erythromycin
Method: as §1

[7] = system: Streptococcus faecalis ATCC 8043; conditions: for MIC: Enterococcus faecalis
Method: as §1

[8] = system: Staphylococcus aureus TPR 13; conditions: for MIC: Staphylococcus aureus
Method: as §1

[9] = system: Staphylococcus aureus FDA 209 P; conditions: for MIC: Staphylococcus aureus
Method: as §1

[10] = IID866, Staphylococcus epidermidis IID 866, agar plate dilution, read-out: MIC value (minimal inhibitory concentration)
[11] = Micrococcus luteus NIHJ, agar plate dilution
[12] = TPR25, Staphylococcus aureus TPR 25, strain resistant to erythromycin, agar plate dilution, read-out: MIC value (minimal inhibitory concentration)
[13] = Staphylococcus aureus smith, agar plate dilution
[14] = ATCC8043, Streptococcus faecalis ATCC 8043, agar plate dilution, read-out: MIC value (minimal inhibitory concentration)
[15] = TPR13, Staphylococcus aureus TPR 13, strain resistant to erythromycin, agar plate dilution, read-out: MIC value (minimal inhibitory concentration)
[16] = FDA209, Staphylococcus aureus FDA 209 P, agar plate dilution, read-out: MIC value (minimal inhibitory concentration)

Row | SMILES | MIC [4] | MIC [1, 10] | MIC [2, 11] | MIC [3, 12] | MIC [5, 13] | MIC [7, 14] | MIC [8, 15] | MIC [9, 16] | MIC value (minimal inhibitory concentration) ([6]; agar plate dilution) | further results
1 | CC[C@H]1OC(=O)[C@H](C)[C@@H](O[C@H]2C[C@@](C)(OC)[C@@H](O)[C@H](C)O2)[C@H](C)[C@@H](O[C@@H]2O[C@H](C)C[C@H](N(C)C)[C@H]2O)[C@](C)(O)C[C@@H](C)C(=O)[C@H](C)[C@@H](O)[C@]1(C)O [Erythromycin A] | > 100 µg/mL | – | – | – | – | – | – | – | – | MIC ([1]; IID866, read-out: MIC value (minimal inhibitory concentration)): 0.4 µg/mL (≈ 0.545 µM); MIC ([2]; Micrococcus luteus): < 0.05 µg/mL; MIC ([3]; TPR25, read-out: MIC value (minimal inhibitory concentration)): 50 µg/mL (≈ 68.1 µM); MIC [5]: 0.2 µg/mL (≈ 0.273 µM); MIC ([6]; TPR23, read-out: MIC value (minimal inhibitory concentration)): 100 µg/mL (≈ 136 µM); MIC ([7]; ATCC8043, read-out: MIC value (minimal inhibitory concentration)): ≤ 0.05 µg/mL; MIC ([8]; TPR13, read-out: MIC value (minimal inhibitory concentration)): 25 µg/mL (≈ 34.1 µM); MIC ([9]; FDA209, read-out: MIC value (minimal inhibitory concentration)): ≤ 0.05 µg/mL
2 | CC[C@H]1OC(=O)[C@H](C)[C@@H](O[C@H]2C[C@@](C)(OC)[C@@H](OC)[C@H](C)O2)[C@H](C)[C@@H](O[C@@H]2O[C@H](C)C[C@H](N(C)C)[C@H]2O)[C@@]2(C)C[C@@H](C)C(O)(O2)[C@H](C)[C@H]2OC(=O)O[C@@]21C (single isomer, unassigned) [C] | 0.4 µg/mL (≈ 0.517 µM) | 0.4 µg/mL (≈ 0.517 µM) | < 0.05 µg/mL | 0.8 µg/mL (≈ 1.03 µM) | 0.2 µg/mL (≈ 0.258 µM) | ≤ 0.05 µg/mL | 0.8 µg/mL (≈ 1.03 µM) | ≤ 0.05 µg/mL | – | MIC ([6]; TPR23, Staphylococcus aureus TPR 23, strain resistant to erythromycin, agar plate dilution, read-out: MIC value (minimal inhibitory concentration)): 3.1 µg/mL (≈ 4.01 µM)
3 | CC[C@H]1OC(=O)[C@H](C)[C@@H](O[C@H]2C[C@@](C)(OC)[C@@H](OC)[C@H](C)O2)[C@H](C)[C@@H](O[C@@H]2O[C@H](C)C[C@H](N(C)C)[C@H]2O)[C@@]2(C)C[C@@H](C)C(OC)(O2)[C@H](C)[C@H]2OC(=O)O[C@@]21C (single isomer, unassigned) [B] | – | – | – | – | – | – | – | – | 6.25 µg/mL (≈ 7.93 µM) | MIC value (minimal inhibitory concentration) ([1]; Staphylococcus epidermidis IID 866, agar plate dilution): 0.8 µg/mL (≈ 1.02 µM); MIC value (minimal inhibitory concentration) [2, 11]: < 0.05 µg/mL; MIC value (minimal inhibitory concentration) ([3]; Staphylococcus aureus TPR 25, strain resistant to erythromycin, agar plate dilution): 3.1 µg/mL (≈ 3.93 µM); MIC value (minimal inhibitory concentration) ([4]; Bacillus subtilis EM-R, strain resistant to erythromycin): 0.8 µg/mL (≈ 1.02 µM); MIC value (minimal inhibitory concentration) [5, 13]: 0.8 µg/mL (≈ 1.02 µM); MIC value (minimal inhibitory concentration) ([7]; Streptococcus faecalis ATCC 8043, agar plate dilution): 0.1 µg/mL (≈ 0.127 µM); MIC value (minimal inhibitory concentration) ([8]; Staphylococcus aureus TPR 13, strain resistant to erythromycin, agar plate dilution): 3.1 µg/mL (≈ 3.93 µM); MIC value (minimal inhibitory concentration) ([9]; Staphylococcus aureus FDA 209 P, agar plate dilution): 0.1 µg/mL (≈ 0.127 µM)
4 | CC[C@H]1OC(=O)[C@H](C)[C@@H](O[C@H]2C[C@@](C)(OC)[C@@H](OC)[C@H](C)O2)[C@H](C)[C@@H](O[C@@H]2O[C@H](C)C[C@H](N(C)C)[C@H]2O)[C@@]2(C)C[C@@H](C)C(OC)(O2)[C@H](C)[C@H]2OC(=O)O[C@@]21C (single isomer, unassigned) [A] | 0.4 µg/mL (≈ 0.508 µM) | 0.4 µg/mL (≈ 0.508 µM) | < 0.05 µg/mL | 1.6 µg/mL (≈ 2.03 µM) | 0.4 µg/mL (≈ 0.508 µM) | ≤ 0.05 µg/mL | 1.6 µg/mL (≈ 2.03 µM) | ≤ 0.05 µg/mL | 3.1 µg/mL (≈ 3.93 µM) | –
